Laboratory results: patent publication US11638716B2, “Compounds, compositions, and methods for the treatment of disease” (F-star Therapeutics, Inc., priority 2017, dated 2023)

Key:
RIG-I = test: IRF/NF-kB reporter cells testing the role of RIG-I; format: cell-based; conditions: 20 hours
Method: (§1) FIG. 28 depicts cells stably expressing both or either one of the reporters to measure IRF and NF-kB activity were treated with a range of concentrations of compound 4 or DMSO control for 20 hours. IRF activity was assessed using QUANTI-luc to measure levels of Lucia and NF-kB activity was determined by measure SEAP levels at 620-655 nm. % induction was calculated from fold change in luminescence/absorbance compared to DMSO treated sample. EC50 values are generated by curve fit in Xlfit.

wt-mSTING = target: T1, wt-mSTING (Mus musculus, UniProt Q3TBT3); test: IRF/NF-kB reporter cells, wt-mSTING; format: cell-based; conditions: 20 hours
T1 construct: endogenous in cells
T1 sequence (Q3TBT3 1-378): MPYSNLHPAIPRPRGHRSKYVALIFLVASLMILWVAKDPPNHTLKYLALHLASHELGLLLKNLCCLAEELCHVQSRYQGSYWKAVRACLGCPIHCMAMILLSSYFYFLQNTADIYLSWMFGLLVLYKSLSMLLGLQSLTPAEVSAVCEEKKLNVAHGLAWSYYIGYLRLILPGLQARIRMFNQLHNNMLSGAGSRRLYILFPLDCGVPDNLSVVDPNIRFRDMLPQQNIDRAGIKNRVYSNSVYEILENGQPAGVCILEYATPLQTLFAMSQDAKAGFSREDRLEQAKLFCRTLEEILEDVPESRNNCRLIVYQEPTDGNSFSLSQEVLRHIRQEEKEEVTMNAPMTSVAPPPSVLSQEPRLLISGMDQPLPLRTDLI
Method: as §1, with “22” for “28”, “2” for “4”
as §1, with “24” for “28”, “3” for “4”
as §1, with “27” for “28”
Cells grown in complete media were treated with various concentrations of a compound of the disclosure or DMSO control. […] After 20 h incubation, IRF activity was assessed using QUANTI-luc to measure levels of Lucia and NF-kB activity was determined by measure SEAP levels at 620-655 nm. % induction was calculated from fold change in luminescence/absorbance compared to DMSO treated sample. […]

IRF [1] = test: IRF signaling reporter (Lucia), compound 4 and diastereomers; format: cell-based; conditions: 20 hours
Method: (§2) Cells were treated with various concentrations of compound 3 and two of its diastereomers (4-A and 4-B), or DMSO control for 20 hours. Cells stably expressed one or both of the reporters used to measure IRF activity. IRF activity was assessed using QUANTI-luc to measure levels of Lucia. % induction was calculated from fold change in luminescence/absorbance compared to DMSO treated sample.
as §2, with “4” for “3”

[2] = tested on: RAW-Lucia-ISG-STING KO cells; test: IRF-type I IFN secreted luciferase in RAW-Lucia-ISG-STING KO cells; format: cell-based; conditions: compound alone, 19 hours
Method: FIG. 4 depicts RAW-Lucia-ISG-WT and RAW-Lucia-ISG-STING KO cells were stimulated with compound 2 or compound 4, alone for 19 hours. Activity of secreted luciferase (IRF-type I IFN activity) in cell culture supernatant was measured using Invivogen's Quanti-luc. Data is shown as fold induction over DMSO treated cells (mean±standard deviation of triplicate wells per stimulant). EC50 values were calculated using XLfit.

IRF [3] = test: In vitro induction of IRF in THP1 dual cells (Lucia reporter, ISG54 promoter); format: cell-based
Method: Example 2. In Vitro Induction of IRF and NF-κβ in THP1 Cells
THP1 dual cells grown in complete media were treated with various concentrations of a compound of the present disclosure or DMSO control. Dual cells carry both secreted embryonic alkaline phosphatase (SEAP) reporter gene under the control of an IFN-β minimal promoter fused to five copies of the NF-kB consensus transcriptional response element to measure NF-kB activity and Lucia reporter gene under the control of an ISG54 minimal promoter to measure IRF activity. After 20 h incubation, IRF activity was assessed using QUANTI-luc to measure levels of Lucia and NF-kB activity was determined by measure SEAP levels at 620-655 nm. % induction was calculated from fold change in luminescence/absorbance compared to DMSO treated sample. […] EC50 values were generated by curve fit in Xlfit.
Cells grown in complete media were treated with various concentrations of a compound of the disclosure or DMSO control. Dual cells carry both secreted embryonic alkaline phosphatase (SEAP) reporter gene under the control of an IFN-β minimal promoter fused to five copies of the NF-kB consensus transcriptional response element to measure NF-kB activity and Lucia reporter gene under the control of an ISG54 minimal promoter to measure IRF activity. After 20 h incubation, IRF activity was assessed using QUANTI-luc to measure levels of Lucia and NF-kB activity was determined by measure SEAP levels at 620-655 nm. % induction was calculated from fold change in luminescence/absorbance compared to DMSO treated sample. EC50 values are generated by curve fit in Xlfit.

THP1-STING KO cells = test: IRF activity in THP1-STING KO cells; format: cell-based; conditions: compound alone, 20 hours
STING CTD = target: T2, STING CTD (Homo sapiens, UniProt Q86WV6, H232R); test: Thermal shift assay with STING CTD; format: binding; conditions: 0.1 mg/mL STING CTD, compound 2 mM to 0.05 uM
T2 construct: Thermal shift assay was conducted with 0.1 mg/mL of STING CTD
Method: Fluorescence as a function of temperature was recorded using a Real Time PCR machine (Thermo Fisher). The temperature gradient was performed in the range of 25-80° C. with a ramp of 0.2° C. over the course of 60 minutes. Data was analyzed with the Thermal Shift Software (Thermo Fisher) and DSF analysis. The Derivative model was used to fit the fluorescence data to obtain the midpoint temperature for the thermal protein unfolding transition (Tm) using the curve-fitting software Prism.

T2 sequence (Q86WV6 135-379 H232R): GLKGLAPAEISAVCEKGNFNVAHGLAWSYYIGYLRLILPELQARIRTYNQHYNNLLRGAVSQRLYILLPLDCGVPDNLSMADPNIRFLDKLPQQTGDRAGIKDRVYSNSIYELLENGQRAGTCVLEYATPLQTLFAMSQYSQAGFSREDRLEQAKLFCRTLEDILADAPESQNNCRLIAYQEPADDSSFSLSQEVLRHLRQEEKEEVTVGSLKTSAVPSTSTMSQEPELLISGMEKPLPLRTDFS

binding to STING (thermal shift) (STING CTD)	EC50 (IRF [3]; Homo sapiens, THP-1, 20 h incubation) [nM]	SMILES	involvement of RIG-I in the mechanism of action (RIG-I)	activity against wt-mSTING (wt-mSTING)	IRF signaling induction (IRF [1]; FIG. 34A)	IRF signaling induction (IRF [1]; FIG. 34C)	IRF activity in STING KO cells [2]	EC50 (IRF [3]; 20 h incubation) [nM]	IRF activity in THP1-STING KO cells (THP1-STING KO cells)
–	–	CCCCCCCCCCOc1ccc(C(=O)Oc2ccc(CSP3(=O)OC[C@H]4O[C@@H](n5cnc6c(N)ncnc65)[C@H](F)[C@@H]4OP(=O)(O)OC[C@H]4O[C@@H](n5ccc(=O)[nH]c5=O)[C@H](O3)[C@@H]4F)cc2)cc1 (stereo partly shown) [Compound 4]	not implicated	possess activity	efficacious in inducing IRF signaling	efficacious in inducing IRF signaling	Neither compound induced IRF activity	< 50	did not induced IRF activity
bind to STING with high affinity	< 50	N.N.Nc1ncnc2c1ncn2[C@@H]1O[C@@H]2COP(=O)(S)O[C@@H]3[C@H](F)[C@@H](COP(=O)(O)O[C@H]2[C@H]1F)O[C@H]3n1ccc(=O)[nH]c1=O (stereo partly shown) [Compound 3]	–	possess activity	–	–	–	–	–
